Earlier results, collected in patent US20100022444A1, “COMBINATION THERAPY FOR MODULATION OF ACTIVITY AND DEVELOPMENT OF CELLS AND TISSUES” (BodyBio, Inc., priority 2008, published 2010).

System: mouse model of Bulbar ALS
Settings: oral administration

In the case of CCCC(=O)[O-].[Na+] [sodium butyrate], the “acetylation of nuclear histone in neural tissues” value is given as “increased acetylation of nuclear histone in neural tissues” and the neurological phenotypes is given as “successfully ameliorated neurological phenotypes”.
